Test results from US20230140200A1, “COMPOSITIONS AND METHODS FOR DETECTING CELLS UNDERGOING FERROPTOSIS USING AN ANTIBODY” (THE TRUSTEES OF COLUMBIA UNIVERSITY IN THE CITY OF NEW YORK, priority 2020, published 2023).

Assays:
HT-1080 cells [1] = assay: Immunofluorescence staining of treated cells, quantification of membrane intensity; format: cell-based, human; conditions: 8 h
OCI-LY7 cells = assay: C11-BODIPY lipid ROS flow cytometry; format: cell-based; conditions: 5 μM PE, 19 h at 37° C.
Procedure: 6 L of media (1% Pen-Strep 10% FBS and 89% RPMI with L-glutamine) containing 400 million OCI-LY7 (DSMZ Cat #ACC-688, RRID:CVCL_1881) cells/L were treated with 5 μM PE (piperazine erastin). Cells were incubated for 19 h at 37° C., then production of lipid ROS was confirmed using BODIPY-C11 by flow cytometry. Ferroptotic cells were pelleted in centrifuge at 1000 rpm for 10 min at 25° C. Cells were resuspended in 1 mL lysis buffer with a pan-protease inhibitor, lysed using a dounce homogenizer. 70% cell lysis was confirmed by microscope. Pellet containing the nuclear fraction and unlysed cells was obtained by centrifuge at 700×g for 10 min at 4° C. Supernatant was spun at 700×g for 10 min at 4° C. Supernatant was then transferred to a new tube and placed in centrifuge at 10,000×g for 45 min at 4° C. Pellet consisting of total membrane was resuspended in upper phase solution. Lower phase was added and mixture was incubated on ice for 5 min. Mixture was spun at 1000×g for 5 min at 4° C. […]
Cells were resuspended in […] HBSS containing 2 μM C11-BODIPY (BODIPY 581/591 C11) (Thermo Fisher Scientific, D3861) and incubated at 37° C. for 15 min. […] Fluorescence intensity was measured on the FL1 channel with gating to record live cells only (gate constructed from DMSO treatment group). A minimum of 10,000 cells were analyzed per condition. […]

TfR1 mRNA = assay: qPCR of TfR1 transcripts; format: cell-based, human; conditions: 8 h, HT-1080 cells
Procedure: HT-1080 cells were seeded in 6-well plates at a density of 400 k cells/well and incubated overnight. The following day, IKE or RSL3 were diluted into wells from stock solutions and treated for indicated time periods. Following treatment, cells were rinsed in cold PBS, trypsinized, and pelleted in Eppendorf tubes. RNA was isolated from cell pellets using Qiagen's RNeasy extraction kit, following manufacturer's instructions (Qiagen). RNA quantity and quality was evaluated by a nanodrop spectrophotometer (Thermo Fisher Scientific). cDNA was generated from 2 μg of total RNA, which was then diluted ten-fold and used as a template in qPCR reactions on a Viia7 Real-Time system. Gene specific primers were used as follows: TfR1 FW: 5′ […] 3′ (SEQ ID No: 18); TFR1 RV: 5′ […] 3′ (SEQ ID No: 19); GAPDH FW: 5′ […] 3′ (SEQ ID No: 20); GAPDH RV: 5′ […] 3′ (SEQ ID No: 21).

HT-1080 cells [2] = assay: Machine-learning training image set, TfR1 membrane fluorescence intensity; format: cell-based, human; conditions: fixed at 10-20% cell death
Procedure: Immunofluorescence (IF). HT-1080 cells were treated with 1 μM RSL3, 20 μM IKE, or 1 μM STS on poly-lysine-coated coverslips (Sigma Aldrich P4832) in 24-well plates. […] The cells were fixed and permeabilized with 4% PFA in PBS with 0.1% Triton X-100 (PBT), with 200 μL per well. The plates were covered with foil, and the cells were incubated and shaken at room temperature for 15-20 min. The PFA was disposed of safely, and the cells were washed with PBT three times. The cells were blocked with 5% normal goat serum (NGS) (ThermoFisher 50197Z) in PBT for 1 h at room temperature. The cells were then incubated with mouse 3F3 anti-Ferroptotic Membrane Antibody (3F3-FMA) at 1:500 dilution in PBT with 1% bovine serum albumin (BSA) and 5% NGS at 4° C. overnight. The cells were washed with PBT for 5 min three times. The cells were then incubated with goat anti-mouse IgG (H+L) Highly Cross-Adsorbed Secondary Antibody, Alexa Fluor 594 (Thermo Fisher Scientific Cat #A-11032, RRID:AB_2534091) at 1:200 dilution and FITC-phalloidin at 1:1000 dilution in PBT with 1% BSA for 1 h at room temperature. […]
Automated image analysis. […] Nuclei were detected via the DAPI signal. […] In a next step, morphology/symmetry features, texture (SER features) and intensity properties of the DAPI, FITC and red channel were calculated for each cell region (nuclei, cytoplasm, and membrane). […]

HT-1080 cells [3] = assay: Nuclear shrinkage by immunofluorescence (DAPI nuclei, CellProfiler); format: cell-based, human; conditions: vs DMSO
HT-1080 cells [4] = assay: High-content analysis of nucleus area; format: cell-based, human; conditions: RSL3 group vs DMSO group
Procedure: For the screening with five technical replicates, HT-1080 cells were washed with PBS, trypsinized and resuspended in cell culture medium. The cell suspension (2,000 cells in 50 μl per well) was dispensed into collagen (Sigma-Aldrich, St. Louis, Mass., USA) pre-coated 384-well plates (PerkinElmer 384-well CellCarrierUltra™). 24 h after seeding, medium was exchanged to medium containing 0.3 μM RSL3 (1 mM stock solution) dissolved in 100% dimethyl sulfoxide (DMSO) or DMSO alone. 50 μl medium with 0.3 μM RSL3/DMSO was added per well. The cells were then incubated (37° C.; 5% CO2) for 2.5 h prior to fixation and antibody staining. […] Finally, plates were recorded using the automated Operetta® microscope with the 20× high NA objective for high-resolution images (PerkinElmer, USA). For quantification, three images of each condition were recorded using three channels (Hoechst, Alexa488, TRITC). […] Quantification on cell number, cytoplasmic intensity, nucleus intensity and spot number per cell was performed using the Columbus Software (PerkinElmer, USA).
Multiparametric image analysis was performed using Columbus Software 2.8.0 (PerkinElmer). […] In a next step we have calculated the morphology and Alexa488 fluorescence intensity in each cell region (nucleus and cytoplasm). […] Each spot was detected as a small region within the corresponding image by having a higher intensity than its surrounding area. […]

HT-1080 cells [5] = assay: Cell death after RSL3 incubation; format: cell-based, human; conditions: 1 μM, 4 h incubation

**Q.** For `CC(C)(C)OO` [tBuOOH, reference compound], which “change of 3F3-FMA staining pattern caused by inducer” value (“change” below) (HT-1080 cells [1]; 100 μM) is on record?
**A.** same changes of 3F3-FMA pattern were observed

**Q.** How did the “lipid peroxides (C11-BODIPY fluorescence)” value (OCI-LY7 cells) turn out when `CC(C)Oc1ccc(CN2CCNCC2)cc1-n1c(CN2CCN(C(=O)COc3ccc(Cl)cc3)CC2)nc2ccccc2c1=O` [PE, piperazine erastin] was run?
**A.** increase in lipid peroxides

**Q.** `CC(C)Oc1ccc(C(=O)Cn2ccnc2)cc1-n1c(CN2CCN(C(=O)COc3ccc(Cl)cc3)CC2)nc2ccccc2c1=O` [IKE, imidazole ketone erastin] was tested. Which “level of TfR1 mRNAs” value (TfR1 mRNA; 10 μM) did it give?
**A.** didn't increase

**Q.** What about the “TfR1 membrane fluorescence intensity after treatment” value (HT-1080 cells [2]; 20 μM) of the same compound?
**A.** significant increase

**Q.** What about the “nuclei shrank (mean nucleus area)” value (HT-1080 cells [3]; 10 μM, 8 h incubation) of the same compound?
**A.** 12%

**Q.** And the “change” value (HT-1080 cells [1]; 10 μM)?
**A.** same changes of 3F3-FMA pattern were observed

**Q.** How did the “nuclei shrank (mean nucleus area)” value (HT-1080 cells [3]; 10 μM, 8 h incubation) turn out when `O=S(=O)(NC1CCCCC1)c1ccc2c(c1)C(=NO)c1cc(S(=O)(=O)NC3CCCCC3)ccc1-2` [FIN56, ferroptosis inducer 56, reference compound] was run?
**A.** 17%

**Q.** And the “change” value (HT-1080 cells [1]; 10 μM)?
**A.** same changes of 3F3-FMA pattern were observed

**Q.** With `CC1(CCO)CC2(CCC(C(C)(C)C)CC2)OO1` (stereo not drawn) [FINO2, ferroptosis inducer endoperoxide, reference compound] as the compound, how does the “nuclei shrank (mean nucleus area)” value (HT-1080 cells [3]; 15 μM, 8 h incubation) read?
**A.** 49%

**Q.** What about the “change” value (HT-1080 cells [1]; 15 μM) of the same compound?
**A.** same changes of 3F3-FMA pattern were observed

**Q.** What does the source list for `COC(=O)c1ccc([C@@H]2c3[nH]c4ccccc4c3C[C@@H](C(=O)OC)N2C(=O)CCl)cc1` [RSL3, (1S, 3R)-RSL3]?
**A.** decrease of average nucleus area (HT-1080 cells [4]): 17%; HT-1080 cells died (HT-1080 cells [5]): 30%; level of TfR1 mRNAs (TfR1 mRNA; 1 μM): didn't increase; TfR1 membrane fluorescence intensity after treatment (HT-1080 cells [2]; 1 μM): significant increase; nuclei shrank (mean nucleus area) (HT-1080 cells [3]; 1 μM, 4 h incubation): 27%
